Biological target: WWP1 (WW domain–containing ubiquitin E3 ligase 1) (Homo sapiens, UniProt Q9H0M0, F577A/Y656A)
Assay: microscale thermophoresis
Type: binding

Chain of WWP1 (WW domain–containing ubiquitin E3 ligase 1) (Q9H0M0 546-922 F577A/Y656A limits assumed): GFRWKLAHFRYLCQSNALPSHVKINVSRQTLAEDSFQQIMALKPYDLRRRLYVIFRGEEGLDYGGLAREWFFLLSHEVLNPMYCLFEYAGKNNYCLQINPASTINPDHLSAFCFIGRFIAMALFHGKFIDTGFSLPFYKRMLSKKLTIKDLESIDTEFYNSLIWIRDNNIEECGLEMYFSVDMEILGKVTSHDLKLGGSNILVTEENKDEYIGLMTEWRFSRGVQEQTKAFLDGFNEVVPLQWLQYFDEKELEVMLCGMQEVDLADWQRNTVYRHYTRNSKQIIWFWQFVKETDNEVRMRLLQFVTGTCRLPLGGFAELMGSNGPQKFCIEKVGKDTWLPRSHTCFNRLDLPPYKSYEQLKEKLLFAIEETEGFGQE

Kd: ~7.72 µM
Structure (SMILES): OCc1c[nH]c2ccccc12 [I3C, indole-3-carbinol]
